# According to patent publication US5436229A, “Bisulfite adducts of arginine aldehydes” (Eli Lilly and Company, priority 1994, dated 1995):
# Non-standard residues stand in square brackets, D forms with d. Residues, ends and D or L forms follow the SMILES beside them. dNMeCha = CN[C@H](CC1CCCCC1)C(=O)O
# How the values were obtained:
# [1] = Epimerization inhibition by sodium bisulfite (compound of Example 80, Step F); assay type: physicochemical; details: pH 7.4, 50° C.
# Method: A 55.55 mM aqueous sodium phosphate solution (adjusted pH 7.4 with sodium hydroxide) was mixed with a 27.77 mM sodium bisulfite/27.77 mM sodium phosphate solution (adjusted pH 7.4 with sodium hydroxide) and water in various ratios to produce buffers containing 0,5.55, 16.66 and 27.77 mM sodium bisulfite. A 0.9 ml aliquot of each sodium bisulfite/phosphate buffer was added to separate 13×100 mm culture tubes and placed in a 50° C. Isotherm Tempblok® heater for 15 minutes. To each culture tube 0.1 ml of a 1 mg/ml aqueous solution of D-3-Piq-Pro-Arg-H.H2 SO4 (Example 80, Step F) was added and mixed well. […] These samples were allowed to react for 15 minutes at 90° C. and were then evaporated to dryness with nitrogen in a 55° C. N-Evap. The residue was dissolved in 1 ml of methanol and transferred to Varian Si BondElut SPE columns (1 ml) previously conditioned with 1 ml of water then 1 ml of methanol. The dissolved samples were pulled through solwly with a slight vacuum, and the sorbent layer was then washed with 2-1 ml volumes of methanol. The SPE columns were then dried at full vacuum (~25 in. Hg) and the compounds of interest were eluted with 300 μl of acetonitrile/100 mM sodium dodecyl sulfate (adjusted to pH 3 with phosphoric acid) (7:3, v/v) into 12×75 mm culture tubes. These eluates were analyzed by the HPLC system described below.
# (§1) The mobile phase was acetonitrile/180 mM sodium dodecyl sulfate (adjusted to pH 3 with phosphoric acid) (85:15, v/v) pumped at 0.5 ml/min with a Shimadzu LC-10AD pump. The column was an Inertsil ODS(2) 150×3.0 mm maintained at 40° C. with a Jones Chromatography 7960 column heater. Twenty-five microliter injections were made with a Waters WISP 712 autosampler. Detection was accomplished with a Kratos 783 UV detector at 360 nm. The percentage of the DLD isomer was calculated using the peak areas of the DLL and DLD isomers in the chromatograms and the following equation: [formula]
# [2] = Epimerization inhibition by sodium bisulfite (compound of Example 75); assay type: physicochemical; details: pH 7.4, 50° C.
# Method: A 55.55 mM aqueous sodium phosphate solution (adjusted to pH 7.4 with sodium hydroxide) was mixed with an aqueous 27.77 mM sodium bisulfite/27.77 mM sodium phosphate solution (adjusted to pH 7.4 with sodium hydroxide) and water in various ratios to produce buffers containing 0, 5.55, 11.11, 16.66, 22.22 and 27.77 mM sodium bisulfite. A 0.9 ml aliquot of each sodium bisulfite/phosphate buffer was added to separate 13×100 mm culture tubes and placed in a 50° C. Tempblok® heater for 15 minutes. To each culture tube 0.1 ml of a 1 mg/ml aqueous solution of the compound of Example 75 was added and mixed well. […] These samples were allowed to react for 30 minutes at 60° C. and were then evaporated to dryness with nitrogen in a 55° C. N-Evap. The residue was dissolved in 1 ml of methanol and transferred to Varian Si BondElut SPE columns (1 ml) previously conditioned with 2 ml of water then 2 ml of methanol. The dissolved samples were pulled through slowly with a slight vaccum, and the sorbent layer was then washed with 2-1 ml volumes of methanol. The SPE columns were then dried at full vacuum (~25 in. Hg) then 500 μl of 500 mM potassium chloride was passed through the SPE columns. The compounds of interest were eluted with 300 μl of methanol/500 mM potassium chloride (1:1, v/v) into 12×75 mm culture tubes. These eluates were analyzed by the HPLC system described below.
# as §1, with “acetonitrile/methanol/500” for “acetonitrile/180”, “ammonium acetate” for “sodium dodecyl sulfate (adjusted to”, “7 (3:3:4,” for “3 with phosphoric acid) (85:15,”, “1” for “0.5”, “a Zorbax SB-C8 150×4.6” for “an Inertsil ODS(2) 150×3.0”, “Fifty” for “Twenty-five”
smiles,measurement,setting,value
"N=C(N)NCCCC(C=O)NC(=O)C1CCCN1C(=O)C1CC2CCCCC2CN1.O=S(=O)(O)O [80 (Step F), D-3-(cis)Piq-Pro-Arg-H.H2 SO4]",Percentage of DLD Isomer,"[1]; sodium bisulfite 0 mM, 0 hr",4.84%
same,Percentage of DLD Isomer,"[1]; sodium bisulfite 0 mM, 0.5 hr",46.00%
same,Percentage of DLD Isomer,"[1]; sodium bisulfite 0 mM, 1 hr",49.42%
same,Percentage of DLD Isomer,"[1]; sodium bisulfite 0 mM, 2 hr",49.53%
same,Percentage of DLD Isomer,"[1]; sodium bisulfite 0 mM, 3 hr",50.16%
same,Percentage of DLD Isomer,"[1]; sodium bisulfite 0 mM, 4 hr",50.36%
same,Percentage of DLD Isomer,"[1]; sodium bisulfite 0 mM, 6 hr",49.71%
same,Percentage of DLD Isomer,"[1]; sodium bisulfite 0 mM, 8 hr",49.92%
same,Percentage of DLD Isomer,"[1]; sodium bisulfite 5 mM, 0 hr",4.23%
same,Percentage of DLD Isomer,"[1]; sodium bisulfite 5 mM, 0.5 hr",43.52%
same,Percentage of DLD Isomer,"[1]; sodium bisulfite 5 mM, 1 hr",48.99%
same,Percentage of DLD Isomer,"[1]; sodium bisulfite 5 mM, 2 hr",47.98%
same,Percentage of DLD Isomer,"[1]; sodium bisulfite 5 mM, 3 hr",49.89%
same,Percentage of DLD Isomer,"[1]; sodium bisulfite 5 mM, 4 hr",49.90%
same,Percentage of DLD Isomer,"[1]; sodium bisulfite 5 mM, 6 hr",49.80%
same,Percentage of DLD Isomer,"[1]; sodium bisulfite 5 mM, 8 hr",50.08%
same,Percentage of DLD Isomer,"[1]; sodium bisulfite 15 mM, 0 hr",4.16%
same,Percentage of DLD Isomer,"[1]; sodium bisulfite 15 mM, 0.5 hr",27.80%
same,Percentage of DLD Isomer,"[1]; sodium bisulfite 15 mM, 1 hr",40.63%
same,Percentage of DLD Isomer,"[1]; sodium bisulfite 15 mM, 2 hr",45.06%
same,Percentage of DLD Isomer,"[1]; sodium bisulfite 15 mM, 3 hr",45.72%
same,Percentage of DLD Isomer,"[1]; sodium bisulfite 15 mM, 4 hr",49.24%
same,Percentage of DLD Isomer,"[1]; sodium bisulfite 15 mM, 6 hr",49.63%
same,Percentage of DLD Isomer,"[1]; sodium bisulfite 15 mM, 8 hr",49.99%
same,Percentage of DLD Isomer,"[1]; sodium bisulfite 25 mM, 0 hr",3.71%
same,Percentage of DLD Isomer,"[1]; sodium bisulfite 25 mM, 0.5 hr",4.56%
same,Percentage of DLD Isomer,"[1]; sodium bisulfite 25 mM, 1 hr",5.14%
same,Percentage of DLD Isomer,"[1]; sodium bisulfite 25 mM, 2 hr",5.31%
same,Percentage of DLD Isomer,"[1]; sodium bisulfite 25 mM, 3 hr",5.79%
same,Percentage of DLD Isomer,"[1]; sodium bisulfite 25 mM, 4 hr",6.06%
same,Percentage of DLD Isomer,"[1]; sodium bisulfite 25 mM, 6 hr",6.39%
same,Percentage of DLD Isomer,"[1]; sodium bisulfite 25 mM, 8 hr",6.72%
"CN[C@H](CC1CCCCC1)C(=O)N1CCC[C@H]1C(=O)N[C@H](C=O)CCCNC(=N)N.Cl [Example 75, N-methyl-D-cyclohexylalanyl-L-Prolinyl-L-Arginine Aldehyde Hydrochloride] (H-[dNMeCha]-Pro-Arg-aldehyde)",Percentage of DLD Isomer,"[2]; sodium bisulfite 0 mM, 0 hr",7.33%
same,Percentage of DLD Isomer,"[2]; sodium bisulfite 0 mM, 0.5 hr",31.91%
same,Percentage of DLD Isomer,"[2]; sodium bisulfite 0 mM, 2 hr",48.95%
same,Percentage of DLD Isomer,"[2]; sodium bisulfite 0 mM, 3 hr",50.21%
same,Percentage of DLD Isomer,"[2]; sodium bisulfite 0 mM, 4 hr",50.27%
same,Percentage of DLD Isomer,"[2]; sodium bisulfite 0 mM, 6 hr",50.03%
same,Percentage of DLD Isomer,"[2]; sodium bisulfite 0 mM, 8 hr",50.15%
same,Percentage of DLD Isomer,"[2]; sodium bisulfite 0 mM, […]",44.72%
same,Percentage of DLD Isomer,"[2]; sodium bisulfite 5 mM, 0 hr",7.35%
same,Percentage of DLD Isomer,"[2]; sodium bisulfite 5 mM, 0.5 hr",14.64%
same,Percentage of DLD Isomer,"[2]; sodium bisulfite 5 mM, 2 hr",34.64%
same,Percentage of DLD Isomer,"[2]; sodium bisulfite 5 mM, 3 hr",42.75%
same,Percentage of DLD Isomer,"[2]; sodium bisulfite 5 mM, 4 hr",47.21%
same,Percentage of DLD Isomer,"[2]; sodium bisulfite 5 mM, 6 hr",48.75%
same,Percentage of DLD Isomer,"[2]; sodium bisulfite 5 mM, 8 hr",49.61%
same,Percentage of DLD Isomer,"[2]; sodium bisulfite 5 mM, […]",24.74%
same,Percentage of DLD Isomer,"[2]; sodium bisulfite 10 mM, 0 hr",7.54%
same,Percentage of DLD Isomer,"[2]; sodium bisulfite 10 mM, 0.5 hr",10.79%
same,Percentage of DLD Isomer,"[2]; sodium bisulfite 10 mM, 2 hr",25.55%
same,Percentage of DLD Isomer,"[2]; sodium bisulfite 10 mM, 3 hr",35.08%
same,Percentage of DLD Isomer,"[2]; sodium bisulfite 10 mM, 4 hr",41.99%
same,Percentage of DLD Isomer,"[2]; sodium bisulfite 10 mM, 6 hr",50.73%
same,Percentage of DLD Isomer,"[2]; sodium bisulfite 10 mM, 8 hr",51.60%
same,Percentage of DLD Isomer,"[2]; sodium bisulfite 10 mM, […]",17.72%
same,Percentage of DLD Isomer,"[2]; sodium bisulfite 15 mM, 0 hr",8.37%
same,Percentage of DLD Isomer,"[2]; sodium bisulfite 15 mM, 0.5 hr",10.31%
same,Percentage of DLD Isomer,"[2]; sodium bisulfite 15 mM, 2 hr",21.41%
same,Percentage of DLD Isomer,"[2]; sodium bisulfite 15 mM, 3 hr",28.54%
same,Percentage of DLD Isomer,"[2]; sodium bisulfite 15 mM, 4 hr",35.26%
same,Percentage of DLD Isomer,"[2]; sodium bisulfite 15 mM, 6 hr",46.26%
same,Percentage of DLD Isomer,"[2]; sodium bisulfite 15 mM, 8 hr",50.58%
same,Percentage of DLD Isomer,"[2]; sodium bisulfite 15 mM, […]",15.19%
same,Percentage of DLD Isomer,"[2]; sodium bisulfite 20 mM, 0 hr",7.65%
same,Percentage of DLD Isomer,"[2]; sodium bisulfite 20 mM, 0.5 hr",9.90%
same,Percentage of DLD Isomer,"[2]; sodium bisulfite 20 mM, 2 hr",17.28%
same,Percentage of DLD Isomer,"[2]; sodium bisulfite 20 mM, 3 hr",23.70%
same,Percentage of DLD Isomer,"[2]; sodium bisulfite 20 mM, 4 hr",29.34%
same,Percentage of DLD Isomer,"[2]; sodium bisulfite 20 mM, 6 hr",43.32%
same,Percentage of DLD Isomer,"[2]; sodium bisulfite 20 mM, 8 hr",48.73%
same,Percentage of DLD Isomer,"[2]; sodium bisulfite 20 mM, […]",12.88%
same,Percentage of DLD Isomer,"[2]; sodium bisulfite 25 mM, 0 hr",8.16%
same,Percentage of DLD Isomer,"[2]; sodium bisulfite 25 mM, 0.5 hr",9.47%
same,Percentage of DLD Isomer,"[2]; sodium bisulfite 25 mM, 2 hr",14.78%
same,Percentage of DLD Isomer,"[2]; sodium bisulfite 25 mM, 3 hr",18.66%
same,Percentage of DLD Isomer,"[2]; sodium bisulfite 25 mM, 4 hr",24.34%
same,Percentage of DLD Isomer,"[2]; sodium bisulfite 25 mM, 6 hr",37.60%
same,Percentage of DLD Isomer,"[2]; sodium bisulfite 25 mM, 8 hr",46.26%
same,Percentage of DLD Isomer,"[2]; sodium bisulfite 25 mM, […]",11.42%
